Target: BlaR (Staphylococcus aureus, UniProt P18357)
Assay: SPR steady-state fit, immobilized sensor domain
Format: binding

Sequence of BlaR (P18357 332-585): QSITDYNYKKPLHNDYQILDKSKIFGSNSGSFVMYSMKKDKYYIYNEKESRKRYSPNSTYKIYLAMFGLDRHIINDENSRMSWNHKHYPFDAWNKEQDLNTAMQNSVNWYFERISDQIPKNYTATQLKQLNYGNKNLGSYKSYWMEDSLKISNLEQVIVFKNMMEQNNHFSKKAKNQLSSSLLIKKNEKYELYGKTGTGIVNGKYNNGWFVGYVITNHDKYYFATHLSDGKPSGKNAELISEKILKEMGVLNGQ

Question: Cn1ncc2c(Nc3ccc(Br)cc3)nc(Nc3ccc(Br)cc3)nc21 [compound 1, N^4,N^6-bis(4-bromophenyl)-1-methyl-1H-pyrazolo[3,4-d]pyrimidine-4,6-diamine] was tested. Which Kd did it give?
Answer: 31 ± 2 µM
